Literature values as cited in patent US6706285B1, “Enteric coated formulation of a benzimidazole derivative and method for preparation thereof” (Hanms Pharm. Co., Ltd., priority 1998, dated 2004).
Read-outs that look alike come from different tables or passages of the source.

half-life (acidic condition at a pH of 4 or less): less than 10 minutes
half-life (at a pH of 11): about 300 days
half-life (neutral condition at a pH of about 7.0): about 14 hours
Structure (SMILES): COc1ccc2[nH]c([S+]([O-])Cc3ncc(C)c(OC)c3C)nc2c1 (stereo not drawn) [omeprazole, 5-methoxy-2[[(4-methoxy-3,5-dimethyl-2-pyridinyl)methyl]sulfinyl]-1H-benzimidazole]
